Data: patent US12207673B2, “Compounds that modulate fatty acid receptor activity and pet food products containing the same” (MARS, INCORPORATED, priority 2014, dated 2025)

Legend:
[1] = tested on: CHO/NatClytin/mock+Gα16 (mock) cells; experiment: Mock control of the agonist/PAM assay with ATP as agonist; type: cell-based; conditions: concentration used as min signal in PAM mode
Protocol: CHO/NatClytin/fGpr120+Gα16 (fGpr120) cells and CHO/NatClytin/mock+Gα16 (mock) cells were seeded at 5,000 cells/well. 24 hours after cell seeding, cells were loaded with 0.5×Fluo8-NW dye in standard tyrode buffer (20 μl/well) for 1 h at room temperature. The ability of dodecyl dihydrogen phosphate to activate fGPR120 expressed by the CHO cells was determined by measuring fluorescence using a FLIPR® Tetra screening system after contacting the cells with the compound in agonist mode and PAM mode according to the following protocol: • 1. […] PAM mode: injection of 3× dodecyl dihydrogen phosphate (10 μl/well), wherein fluorescence was measured for 3 min. After about 1 additional minute, injection of 3× fGPR120 agonist at a concentration corresponding to the agonist's EC20 (15 μl/well), wherein fluorescence (i.e., PAM activity) was measured for 3 min. The fGPR120 agonist was 1.5 μM α-linolenic acid. For mock controls, 0.2μ ATP was used as the agonist.
Controls for PAM mode experiments—dose response curves of α-linolenic acid (fGpr120) or ATP (mock) (FIGS. 12A and 12B): 100 μM α-linolenic acid (max signal for Gpr120), 1.5 μM α-linolenic acid (EC20, min signal for Gpr120), 30 μM ATP (max signal), 0.2 μM ATP (EC20, min signal).

fGPR120 = fGPR120 agonist mode / PAM mode assay in CHO/NatClytin/fGpr120+Gα16 cells, Fluo8-NW, FLIPR Tetra; type: cell-based, feline
Protocol: Methods: CHO cells that stably express fGPR120 were used to assay dodecyl dihydrogen phosphate for activity as an fGPR120 agonist or PAM.
CHO/NatClytin/fGpr120+Gα16 (fGpr120) cells and CHO/NatClytin/mock+Gα16 (mock) cells were seeded at 5,000 cells/well. 24 hours after cell seeding, cells were loaded with 0.5×Fluo8-NW dye in standard tyrode buffer (20 μl/well) for 1 h at room temperature. The ability of dodecyl dihydrogen phosphate to activate fGPR120 expressed by the CHO cells was determined by measuring fluorescence using a FLIPR® Tetra screening system after contacting the cells with the compound in agonist mode and PAM mode according to the following protocol: • 1. […] For mock controls, 0.2μ ATP was used as the agonist.
The maximum of ΔF/F values measured using the FLIPR® Tetra system were exported and used for data analysis.
The compounds used in the experiments were dissolved 6× in 0.01% BSA (fatty acid-free) and then pre-mixed on compound plates with buffer.
Controls for agonist mode experiments—dose response curves of α-linolenic acid (FIGS. 12A and 12B): 100 μM α-linolenic acid (fGpr120 max signal), 30 μM ATP (max signal), buffer (min signal), buffer+0.01% BSA (min signal).

SMILES: Nc1ncnc2c1ncn2[C@@H]1O[C@H](COP(=O)(O)OP(=O)(O)OP(=O)(O)O)[C@@H](O)[C@H]1O [ATP]
- EC20 of ATP in mock cells [1]: 200 nM

SMILES: CC/C=C\C/C=C\C/C=C\CCCCCCCC(=O)O [Compound 24, (9Z,12Z,15Z)-octadeca-9,12,15-trienoic acid]
- EC20 of the fGPR120 agonist (fGPR120; fGpr120 cells, concentration used as min signal in PAM mode): 1500 nM

SMILES: CCCCCCCCCCCCOP(=O)(O)O [dodecyl dihydrogen phosphate, Dodecyl dihydrogen phosphate]
- modulation of fGPR120 activity as positive allosteric modulator (PAM) (fGPR120; PAM mode, in the presence of an fGPR120 agonist (1.5 μM α-linolenic acid, EC20)): modulated the activity of fGPR120 as a PAM
